{
  "source": "ChEMBL document CHEMBL1201862",
  "about": "“PubChem BioAssay data set” (2004)",
  "key": {"[1]": {"biological_target": "DNA dC->dU-editing enzyme APOBEC-3G (Homo sapiens, UniProt Q9HC16)", "sequence (Q9HC16 whole entry)": "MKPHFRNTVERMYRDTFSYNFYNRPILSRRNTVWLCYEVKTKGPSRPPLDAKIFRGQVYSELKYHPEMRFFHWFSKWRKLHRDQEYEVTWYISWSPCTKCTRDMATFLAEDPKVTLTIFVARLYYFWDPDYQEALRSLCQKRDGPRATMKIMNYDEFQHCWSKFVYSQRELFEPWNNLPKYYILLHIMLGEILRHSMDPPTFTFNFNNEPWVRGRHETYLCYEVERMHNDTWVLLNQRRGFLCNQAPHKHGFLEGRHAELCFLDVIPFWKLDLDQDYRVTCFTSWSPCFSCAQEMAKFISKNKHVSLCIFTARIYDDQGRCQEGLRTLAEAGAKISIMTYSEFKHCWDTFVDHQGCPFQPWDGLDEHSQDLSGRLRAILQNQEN", "assay": "inhibition of APOBEC3G ssDNA deamination – biochemical, fluorescence, single-stranded DNA substrate, SAR follow-up (AID 602136)", "format": "functional", "conditions": "read-out: IC50_Mean"}, "[2]": {"biological_target": "DNA dC->dU-editing enzyme APOBEC-3A (Homo sapiens, UniProt P31941)", "sequence (P31941 whole entry)": "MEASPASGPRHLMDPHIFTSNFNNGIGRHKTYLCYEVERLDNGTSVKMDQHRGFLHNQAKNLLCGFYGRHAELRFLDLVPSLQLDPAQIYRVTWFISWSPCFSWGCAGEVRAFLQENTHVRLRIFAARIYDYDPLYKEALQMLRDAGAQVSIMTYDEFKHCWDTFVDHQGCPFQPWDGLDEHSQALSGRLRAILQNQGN", "assay": "SAR analysis of small molecule inhibitors of APOBEC3A DNA Deaminase via a fluorescence-based single-stranded DNA deaminase assay.", "format": "functional", "conditions": "read-out: IC50_Mean"}, "[3]": {"biological_target": "Voltage-gated inwardly rectifying potassium channel KCNH2 (Homo sapiens, UniProt Q12809)", "sequence (Q12809 whole entry)": "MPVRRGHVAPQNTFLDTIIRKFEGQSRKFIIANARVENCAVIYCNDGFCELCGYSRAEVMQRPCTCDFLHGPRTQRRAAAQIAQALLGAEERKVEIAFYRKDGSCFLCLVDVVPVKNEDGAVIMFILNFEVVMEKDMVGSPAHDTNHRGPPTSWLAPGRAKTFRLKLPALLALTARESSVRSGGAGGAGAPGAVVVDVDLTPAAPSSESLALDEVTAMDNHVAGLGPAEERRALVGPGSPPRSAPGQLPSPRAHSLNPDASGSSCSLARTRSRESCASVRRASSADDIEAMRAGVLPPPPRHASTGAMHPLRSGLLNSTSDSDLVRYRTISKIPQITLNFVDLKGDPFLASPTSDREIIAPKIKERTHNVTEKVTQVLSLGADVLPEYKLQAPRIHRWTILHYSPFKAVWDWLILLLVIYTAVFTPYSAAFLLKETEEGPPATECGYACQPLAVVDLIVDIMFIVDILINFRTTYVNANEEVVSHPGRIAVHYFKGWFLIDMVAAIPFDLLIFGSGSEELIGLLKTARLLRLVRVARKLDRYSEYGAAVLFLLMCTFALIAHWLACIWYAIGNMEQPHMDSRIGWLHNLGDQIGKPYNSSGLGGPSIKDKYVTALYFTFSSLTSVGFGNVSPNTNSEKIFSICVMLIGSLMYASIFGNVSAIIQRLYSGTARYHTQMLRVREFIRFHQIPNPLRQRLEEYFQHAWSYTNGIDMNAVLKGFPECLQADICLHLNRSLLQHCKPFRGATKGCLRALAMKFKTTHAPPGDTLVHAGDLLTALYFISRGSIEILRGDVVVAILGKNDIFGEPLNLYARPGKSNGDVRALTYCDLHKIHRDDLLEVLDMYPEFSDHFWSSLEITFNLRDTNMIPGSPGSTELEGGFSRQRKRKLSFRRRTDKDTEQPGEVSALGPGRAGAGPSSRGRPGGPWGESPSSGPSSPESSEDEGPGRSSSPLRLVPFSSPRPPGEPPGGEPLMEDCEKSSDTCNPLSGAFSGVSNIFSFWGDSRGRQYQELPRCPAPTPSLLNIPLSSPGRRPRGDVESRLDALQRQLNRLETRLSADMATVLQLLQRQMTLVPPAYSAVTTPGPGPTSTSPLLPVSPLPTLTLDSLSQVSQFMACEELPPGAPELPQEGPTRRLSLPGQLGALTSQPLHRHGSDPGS", "conditions": "Potency"}, "[4]": {"assay": "reduction of Shn3 3'UTR-driven luciferase in osteoblasts – cell-based, Clone20 osteoblasts, firefly luciferase, cherry-picked, dose response (AID 624132)", "format": "functional"}, "[5]": {"assay": "loss of viability in HepG2 cells – cell-based, CellTiter-Glo, cherry-picked, cytotoxicity control for Shn3 inhibitor project, dose response (AID 624134)", "format": "functional"}, "[6]": {"assay": "non-specific 3'UTR reporter inhibition in Clone20-Shn3RL – cell-based, Renilla luciferase, cherry-picked, counter-screen for Shn3 inhibitor project, dose response (AID 624133)", "format": "functional"}, "Protein Wnt-3a": {"biological_target": "Protein Wnt-3a (Mus musculus, UniProt P27467)", "sequence (P27467 whole entry)": "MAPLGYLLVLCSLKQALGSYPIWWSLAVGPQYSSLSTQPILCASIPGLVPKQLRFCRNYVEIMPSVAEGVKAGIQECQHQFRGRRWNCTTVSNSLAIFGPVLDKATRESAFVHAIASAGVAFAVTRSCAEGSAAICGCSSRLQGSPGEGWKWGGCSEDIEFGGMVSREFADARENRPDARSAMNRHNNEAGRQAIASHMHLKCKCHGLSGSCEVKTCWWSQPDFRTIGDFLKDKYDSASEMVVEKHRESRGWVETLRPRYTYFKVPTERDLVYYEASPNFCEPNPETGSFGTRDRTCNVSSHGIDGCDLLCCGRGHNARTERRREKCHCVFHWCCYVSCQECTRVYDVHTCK", "assay": "antagonism of Wnt3a pathway luciferase reporter – Wnt-LIGHT cells, luminescence, selectivity assay for Gli-SUFU antagonist project, dose response (AID 651570);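 also: Wnt-LIGHT reporter cells stimulated with conditioned medium from Wnt3a-producing cells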", "format": "functional", "conditions": "read-out: IC50_Mean"}, "[7]": {"assay": "Trypanosoma cruzi growth suppression in host cells – NIH3T3 host cells, beta-gal luminescence, confirmation (AID 2044);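 also: intracellular parasites grown in NIH/3T3 mouse fibroblasts as host cells; luminescent beta-galactosidase reporter signal from transgenic T. cruzi replicating inside host cells; inhibitors lower the luminescence signal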", "format": "functional, cell-based"}, "[8]": {"assay": "microbe, parasite or virus in culture", "format": "functional", "conditions": "Mycobacterium tuberculosis"}, "[9]": {"assay": "intracellular Trypanosoma cruzi inhibitors in host cells – cell-based, plate reader, cherry-pick samples, set 3, dose response (AID 651818);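 also: compounds incubated with infected cells for about four days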", "format": "functional"}, "[10]": {"biological_target": "T1, Endoribonuclease toxin MazF (Escherichia coli K-12, UniProt P0AE70)", "T1 sequence (P0AE70 whole entry)": "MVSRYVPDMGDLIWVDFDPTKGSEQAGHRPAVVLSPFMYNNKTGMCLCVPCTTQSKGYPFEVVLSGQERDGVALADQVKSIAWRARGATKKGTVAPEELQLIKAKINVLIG", "assay": "activation of MazEF endoribonuclease cleavage – biochemical, fluorescence, single-stranded RNA substrate, uHTS hits, dose response (AID 588481)", "format": "functional"}, "[11]": {"biological_target": "Glucose-6-phosphate 1-dehydrogenase (Homo sapiens, UniProt P11413)", "sequence (P11413 whole entry)": "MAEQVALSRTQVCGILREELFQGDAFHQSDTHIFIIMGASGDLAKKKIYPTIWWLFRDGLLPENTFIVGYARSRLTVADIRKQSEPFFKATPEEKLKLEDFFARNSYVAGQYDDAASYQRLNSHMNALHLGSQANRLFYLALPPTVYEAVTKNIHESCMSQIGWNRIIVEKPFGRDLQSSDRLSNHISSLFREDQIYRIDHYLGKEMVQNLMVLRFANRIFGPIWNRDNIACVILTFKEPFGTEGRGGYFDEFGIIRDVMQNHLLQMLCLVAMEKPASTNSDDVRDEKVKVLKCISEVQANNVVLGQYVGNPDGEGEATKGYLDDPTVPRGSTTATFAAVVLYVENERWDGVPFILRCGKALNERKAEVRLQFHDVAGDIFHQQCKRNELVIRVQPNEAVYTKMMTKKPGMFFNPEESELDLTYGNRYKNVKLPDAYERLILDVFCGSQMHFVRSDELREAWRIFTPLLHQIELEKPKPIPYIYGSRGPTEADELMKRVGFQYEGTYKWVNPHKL", "assay": "inhibition of Homo sapiens G6PD, dose series – biochemical, fluorescence, selectivity assay for P. falciparum G6PD inhibitor project, dose response (AID 504792)", "format": "functional"}, "[12]": {"biological_target": "T1, Endoribonuclease toxin MazF", "assay": "substrate-only fluorescence increase artefacts – biochemical, single-stranded RNase substrate, counter-screen for MazEF activator project, dose response (AID 588502)", "format": "functional"}, "[13]": {"biological_target": "T2, Zinc finger protein mex-5 (Caenorhabditis elegans, UniProt Q9XUB2)", "T2 sequence (Q9XUB2 whole entry)": "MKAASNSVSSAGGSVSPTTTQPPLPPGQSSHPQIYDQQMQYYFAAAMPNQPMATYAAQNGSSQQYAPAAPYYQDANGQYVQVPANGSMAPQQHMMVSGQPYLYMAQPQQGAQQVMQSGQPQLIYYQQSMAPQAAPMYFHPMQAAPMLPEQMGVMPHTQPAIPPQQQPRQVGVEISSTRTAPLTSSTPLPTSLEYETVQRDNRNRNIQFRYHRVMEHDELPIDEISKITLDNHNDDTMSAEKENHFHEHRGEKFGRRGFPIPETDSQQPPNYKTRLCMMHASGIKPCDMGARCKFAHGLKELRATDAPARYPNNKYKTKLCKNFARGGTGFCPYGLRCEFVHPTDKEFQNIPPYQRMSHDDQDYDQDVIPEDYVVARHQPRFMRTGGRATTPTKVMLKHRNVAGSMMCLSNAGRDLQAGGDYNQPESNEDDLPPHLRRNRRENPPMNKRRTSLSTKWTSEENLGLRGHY", "assay": "potency of MEX-5 RNA-binding blockers – biochemical, C. elegans, fluorescence polarization, dose response (AID 1960)"}, "[14]": {"biological_target": "T3, RNA-binding protein pos-1 (Caenorhabditis elegans, UniProt G5EF15)", "T3 sequence (G5EF15 whole entry)": "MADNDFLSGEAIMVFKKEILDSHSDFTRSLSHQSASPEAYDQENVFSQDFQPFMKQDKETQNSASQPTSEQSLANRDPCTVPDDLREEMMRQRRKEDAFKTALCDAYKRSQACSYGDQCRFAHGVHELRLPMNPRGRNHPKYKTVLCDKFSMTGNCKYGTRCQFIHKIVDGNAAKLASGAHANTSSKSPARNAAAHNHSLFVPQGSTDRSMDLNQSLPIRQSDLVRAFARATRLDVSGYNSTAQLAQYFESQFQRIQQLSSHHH", "assay": "disruptors of C. elegans POS-1 RNA interaction – biochemical, fluorescence polarization, dose response (AID 1964);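 also: purified POS-1 fused to maltose binding protein made in E. coli; potency of compounds blocking POS-1 binding to fluorescent RNA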"}, "[15]": {"biological_target": "T4, Polyadenylate-binding protein 1 (Homo sapiens, UniProt P11940)", "T4 sequence (P11940 whole entry)": "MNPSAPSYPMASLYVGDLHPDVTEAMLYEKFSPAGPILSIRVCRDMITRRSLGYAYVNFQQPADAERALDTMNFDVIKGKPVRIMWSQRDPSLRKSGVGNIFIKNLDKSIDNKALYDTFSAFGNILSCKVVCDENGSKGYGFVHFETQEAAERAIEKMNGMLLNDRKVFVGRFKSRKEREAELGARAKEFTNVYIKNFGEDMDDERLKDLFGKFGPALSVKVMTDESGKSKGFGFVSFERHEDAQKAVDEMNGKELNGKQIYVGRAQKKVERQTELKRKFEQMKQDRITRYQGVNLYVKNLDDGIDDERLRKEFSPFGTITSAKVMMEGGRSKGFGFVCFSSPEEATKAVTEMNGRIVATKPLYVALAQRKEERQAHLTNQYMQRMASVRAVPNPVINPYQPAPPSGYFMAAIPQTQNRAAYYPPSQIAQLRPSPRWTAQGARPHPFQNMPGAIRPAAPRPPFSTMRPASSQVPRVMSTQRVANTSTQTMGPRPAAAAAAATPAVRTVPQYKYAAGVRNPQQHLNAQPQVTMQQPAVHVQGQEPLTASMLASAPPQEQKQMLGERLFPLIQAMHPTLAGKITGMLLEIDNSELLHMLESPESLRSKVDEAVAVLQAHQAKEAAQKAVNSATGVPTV", "assay": "MLLE binding blockers, Cy5 peptide tracer – biochemical, fluorescence polarization, Cy5-PAM2 peptide, secondary, miRNA deadenylation inhibitor project, dose response (AID 602260)", "format": "functional", "conditions": "read-out: IC50_Mean"}, "[16]": {"biological_target": "T4, Polyadenylate-binding protein 1", "assay": "MLLE domain peptide-binding blockers, IC50 – biochemical, fluorescence polarization, FITC-PAM2 peptide, dose response (AID 602259)", "format": "functional", "conditions": "read-out: IC50_Mean"}, "[17]": {"biological_target": "T5, Lysine-specific demethylase 4C (Homo sapiens, UniProt Q9H3R0)", "T5 sequence (Q9H3R0 whole entry)": "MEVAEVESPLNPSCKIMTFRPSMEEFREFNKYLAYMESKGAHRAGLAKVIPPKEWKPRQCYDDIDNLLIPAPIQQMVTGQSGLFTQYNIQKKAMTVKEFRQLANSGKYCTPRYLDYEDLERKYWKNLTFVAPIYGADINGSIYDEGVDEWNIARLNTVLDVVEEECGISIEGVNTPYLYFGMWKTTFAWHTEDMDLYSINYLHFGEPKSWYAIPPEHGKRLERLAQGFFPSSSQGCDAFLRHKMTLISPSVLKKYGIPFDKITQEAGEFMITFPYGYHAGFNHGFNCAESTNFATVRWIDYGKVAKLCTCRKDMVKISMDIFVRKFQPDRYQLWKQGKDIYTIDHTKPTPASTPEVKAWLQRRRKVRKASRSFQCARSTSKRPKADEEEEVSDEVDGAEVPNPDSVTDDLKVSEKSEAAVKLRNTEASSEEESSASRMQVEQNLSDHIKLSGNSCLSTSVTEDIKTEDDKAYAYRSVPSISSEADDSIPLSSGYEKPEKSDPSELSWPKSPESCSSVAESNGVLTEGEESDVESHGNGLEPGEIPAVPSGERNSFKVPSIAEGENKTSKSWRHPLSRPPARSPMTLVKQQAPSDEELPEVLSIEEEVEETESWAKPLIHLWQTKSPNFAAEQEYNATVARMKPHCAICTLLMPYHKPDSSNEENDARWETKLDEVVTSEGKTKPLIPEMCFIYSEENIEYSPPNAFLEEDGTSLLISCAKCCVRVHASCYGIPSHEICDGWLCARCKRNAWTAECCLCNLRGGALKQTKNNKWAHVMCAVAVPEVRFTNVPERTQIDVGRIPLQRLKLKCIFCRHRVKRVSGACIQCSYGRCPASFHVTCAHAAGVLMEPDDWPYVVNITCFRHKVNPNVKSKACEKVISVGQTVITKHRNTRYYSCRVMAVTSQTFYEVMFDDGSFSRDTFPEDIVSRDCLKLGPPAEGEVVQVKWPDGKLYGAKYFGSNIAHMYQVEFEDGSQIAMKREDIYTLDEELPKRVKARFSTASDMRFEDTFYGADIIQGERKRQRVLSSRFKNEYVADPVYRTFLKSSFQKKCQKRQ", "assay": "inhibition of JMJD2C H3K9me3 demethylation – biochemical, DELFIA europium, cherry-picked samples, dose response (AID 488835)", "format": "functional"}, "[18]": {"biological_target": "Luciferin 4-monooxygenase (Photinus pyralis, UniProt P08659)", "sequence (P08659 whole entry)": "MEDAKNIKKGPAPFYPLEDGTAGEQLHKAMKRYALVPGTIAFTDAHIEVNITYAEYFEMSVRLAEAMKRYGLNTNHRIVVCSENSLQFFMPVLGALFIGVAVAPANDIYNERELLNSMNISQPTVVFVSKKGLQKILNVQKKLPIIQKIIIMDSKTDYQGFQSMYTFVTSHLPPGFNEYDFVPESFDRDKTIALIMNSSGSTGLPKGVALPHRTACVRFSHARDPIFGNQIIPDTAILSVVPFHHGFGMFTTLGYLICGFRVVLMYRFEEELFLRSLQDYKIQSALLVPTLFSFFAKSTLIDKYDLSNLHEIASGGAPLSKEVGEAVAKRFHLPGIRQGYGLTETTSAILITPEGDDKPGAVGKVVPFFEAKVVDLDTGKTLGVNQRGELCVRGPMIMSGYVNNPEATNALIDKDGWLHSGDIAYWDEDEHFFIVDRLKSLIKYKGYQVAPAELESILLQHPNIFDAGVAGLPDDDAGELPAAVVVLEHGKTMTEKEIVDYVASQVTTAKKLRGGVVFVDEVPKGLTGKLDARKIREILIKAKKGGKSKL", "assay": "inhibition of purified Photinus pyralis luciferase – biochemical, luminescence, dose response (AID 1891)"}, "[19]": {"assay": "Luminescence Cell-Based Dose Confirmation HTS to Identify Inhibitors of Platelet Dense Granule Release. [Related pubchem assays: 1663 (Primary HTS), 1678 (Summary of Project)]", "format": "functional"}},
  "note": "Active and inactive are the calls of the source.",
  "data": [
    {"smiles": "Cc1ccc(CC(=O)Nc2nnc(-c3ccncc3)s2)cc1", "values": [
      {"measurement": "IC50", "setting": "[1]", "value": "> 99 µM (inactive)"},
      {"measurement": "IC50", "setting": "[2]", "value": "> 99 µM (inactive)"}
    ]},
    {"smiles": "COc1cc(CNC(=O)CCCCCCC(C)C)ccc1O", "note": "[DIHYDROCAPSAICIN]", "values": [
      {"measurement": "AC50", "setting": "[3]", "value": "35.5 µM (inconclusive)"}
    ]},
    {"smiles": "CNC(=O)OCC[N+](C)(C)C", "note": "[METHYLCARBAMYLCHOLINE CHLORIDE]", "values": [
      {"measurement": "AC50", "setting": "[3]", "value": "35.5 µM (inconclusive)"}
    ]},
    {"smiles": "O=C(c1cc2nc(-c3ccc(F)cc3)cc(C(F)(F)F)n2n1)N1CCCCC1c1cccnc1", "note": "(configuration not stated)", "values": [
      {"measurement": "AC50", "setting": "[4]", "value": "2.37 µM (active)"},
      {"measurement": "AC50", "setting": "[5]", "value": "5.1 µM (active)"},
      {"measurement": "AC50", "setting": "[6]", "value": "2.12 µM (active)"},
      {"measurement": "IC50", "setting": "Protein Wnt-3a", "value": "3.57 µM (active)"},
      {"measurement": "EC50", "setting": "[7]", "value": "0.164 µM (active)"},
      {"measurement": "CC50", "setting": "[8]", "value": "> 40 µM (active)"}
    ]},
    {"smiles": "COc1ccc(NC(=O)Nc2cccc3c2O[C@@H](CN(C)Cc2ccc(C(=O)Nc4ccccc4N)cc2)[C@H](C)CN([C@@H](C)CO)C3=O)cc1", "values": [
      {"measurement": "AC50", "setting": "[9]", "value": "0.535 µM (active)"}
    ]},
    {"smiles": "O=c1[nH]nc(CNc2ccc(O)cc2)c2ccccc12", "values": [
      {"measurement": "EC50", "setting": "[10]", "value": "> 99 µM (inactive)"},
      {"measurement": "IC50", "setting": "[11]", "value": "> 80 µM (inactive)"},
      {"measurement": "EC50", "setting": "[12]", "value": "> 99 µM (inactive)"},
      {"measurement": "EC50", "setting": "[13]", "value": "15.3 µM (inconclusive)"},
      {"measurement": "EC50", "setting": "[14]", "value": "11.8 µM (active)"}
    ]},
    {"smiles": "CCOc1ccc(/N=C/C=C(/O)c2ccc(OC)cc2)c([N+](=O)[O-])c1", "values": [
      {"measurement": "EC50", "setting": "[10]", "value": "> 99 µM (inactive)"},
      {"measurement": "IC50", "setting": "[15]", "value": "> 66 µM (inactive)"},
      {"measurement": "EC50", "setting": "[12]", "value": "6.29 µM (active)"},
      {"measurement": "IC50", "setting": "[16]", "value": "> 66 µM (inactive)"}
    ]},
    {"smiles": "CCC(C(=O)Nc1nnc(SCCOC)s1)c1ccccc1", "note": "(configuration not stated)", "values": [
      {"measurement": "IC50", "setting": "[1]", "value": "> 99 µM (inactive)"},
      {"measurement": "IC50", "setting": "[2]", "value": "> 99 µM (inactive)"}
    ]},
    {"smiles": "C[C@H](CO)N1C[C@H](C)[C@@H](CN(C)Cc2ccc3c(c2)OCO3)Oc2c(NC(=O)C3CCCCC3)cccc2C1=O", "values": [
      {"measurement": "AC50", "setting": "[17]", "value": "13.1 µM (active)"}
    ]},
    {"smiles": "O=C(N=CNOCc1ccc(Cl)cc1Cl)NOCc1c(Cl)cccc1Cl", "values": [
      {"measurement": "EC50", "setting": "[10]", "value": "> 99 µM (inactive)"},
      {"measurement": "EC50", "setting": "[12]", "value": "> 99 µM (inactive)"},
      {"measurement": "EC50", "setting": "[18]", "value": "> 112 µM (not active)"},
      {"measurement": "EC50", "setting": "[19]", "value": "> 112 µM (not active)"}
    ]}
  ]
}
